Measured values as given in US7531527B2, “2-Propylidene-19-nor-vitamin D compounds” (Wisconsin Alumni Research Foundation, priority 2003, dated 2009).

Tests used:
[1] = system: 24-hydroxylase (24OHase) gene promoter; assay: Transcription activation, 24-hydroxylase promoter luciferase reporter in ROS 17/2.8 (bone) cells; type: cell-based; conditions: ROS 17/2.8 cells, 16 hours after dosing, FIG. 4
Procedure: Transcriptional activity was measured in ROS 17/2.8 (bone) cells that were stably transfected with a 24-hydroxylase (24OHase) gene promoter upstream of a luciferase reporter gene (Arbour et al., 1998). Cells were given a range of doses. Sixteen hours after dosing the cells were harvested and luciferase activities were measured using a luminometer.
“RLU” in FIG. 4 refers to relative luciferase units.

[2] = system: human leukemia cells (HL-60 cells); assay: HL-60 cell differentiation (NBT reduction); type: cell-based; conditions: for potency in promoting the differentiation of leukemia cells: HL-60 cells, compared with 1α,25-dihydroxyvitamin D3 and 2MD, FIG. 3; for percent of HL-60 cells induced to differentiate: NBT assay, concentration 1×10^−7M
Procedure: The differentiation of HL-60 promyelocytic into monocytes was determined as described by Ostrem et al (J. Biol. Chem. 262, 14164-14171, 1987).
Differentiation activity was assessed by a standard differentiation assay, abbreviated as NBT reduction (nitroblue tetrazolium reduction). The assay was conducted according to known procedures, as given, for example, by DeLuca et al U.S. Pat. No. 4,717,721 and Ostrem et al, J. Biol. Chem. 262, 14164, 1987. For the assay, the differentiation activity of the test compounds is expressed in terms of the percent of HL-60 cells having differentiated to normal cells in response to a given concentration of test compound.

[3] = system: Male, weanling Sprague-Dawley rats; assay: Intestinal calcium transport (everted gut sac method); type: in vivo, rat; conditions: four consecutive ip doses, FIG. 5
Procedure: (§1) Male, weanling Sprague-Dawley rats were placed on Diet 11 (0.47% Ca) diet+AEK for one week followed by Diet 11 (0.02% Ca)+AEK for 3 weeks. The rats were then switched to a diet containing 0.47% Ca for one week followed by two weeks on a diet containing 0.02% Ca. Dose administration began during the last week on 0.02% calcium diet. Four consecutive ip doses were given approximately 24 hours apart. Twenty-four hours after the last dose, blood was collected from the severed neck and the concentration of serum calcium determined as a measure of bone calcium mobilization. The first 10 cm of the intestine was also collected for intestinal calcium transport analysis using the everted gut sac method.

[4] = system: Male, weanling Sprague-Dawley rats; assay: Bone calcium mobilization (serum calcium); type: in vivo, rat; conditions: four consecutive ip doses, FIG. 6
Procedure: as §1

[5] = biological target: T1, recombinantly produced rat receptor (1α,25-hydroxyvitamin D3 rat receptor) (Rattus norvegicus, UniProt P13053); assay: Competitive VDR binding; conditions: FIGS. 1 and 2
T1 construct: made in house
T1 sequence (P13053 1-423): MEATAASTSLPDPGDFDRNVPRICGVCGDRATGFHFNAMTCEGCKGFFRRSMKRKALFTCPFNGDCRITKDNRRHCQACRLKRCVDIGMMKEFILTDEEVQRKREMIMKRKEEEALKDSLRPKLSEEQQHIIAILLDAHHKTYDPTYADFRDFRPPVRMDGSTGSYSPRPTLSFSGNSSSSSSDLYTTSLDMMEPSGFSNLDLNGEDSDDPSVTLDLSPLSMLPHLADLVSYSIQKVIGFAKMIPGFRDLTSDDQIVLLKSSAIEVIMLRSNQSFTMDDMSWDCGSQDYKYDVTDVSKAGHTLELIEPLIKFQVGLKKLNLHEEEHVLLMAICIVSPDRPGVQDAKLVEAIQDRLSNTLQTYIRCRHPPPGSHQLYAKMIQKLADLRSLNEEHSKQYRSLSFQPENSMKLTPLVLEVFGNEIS
Procedure: Competitive binding of the analogs to the porcine intestinal receptor was carried out by the method described by Dame et al (Biochemistry 25, 4523-4534, 1986), except the recombinantly produced rat receptor was used as the receptor (see Vanhooke et al., Biochemistry, in press, 2004).

Substance | transcriptional activity in bone cells [1] | potency in promoting the differentiation of leukemia cells [2] | percent of HL-60 cells induced to differentiate [2] | intestinal calcium transport activity [3] | intestinal calcium transport activity compared with 2MD [3] | ability to mobilize calcium from bone [4] | bone calcium mobilization compared with 2MD [4] | activity in binding to the 1α,25-hydroxyvitamin D3 rat receptor [5]
2-(3′-hydroxypropylidene)-19-nor-1α,25-(OH)2D3 [1AGR] | significant transcriptional activity | as potent as 1α,25-dihydroxyvitamin D3 and 2MD | the same degree of differentiation | relatively high intestinal calcium transport activity | more active than 2MD | significant ability to mobilize calcium from bone | less active in this regard than 2MD | very active
2-(3′-hydroxypropylidene)-19-nor-(20S)-1α,25-(OH)2D3 [1AGS] | significant transcriptional activity | as potent as 1α,25-dihydroxyvitamin D3 and 2MD | the same degree of differentiation | relatively high intestinal calcium transport activity | more active than 2MD | significant ability to mobilize calcium from bone | less active in this regard than 2MD | very active
2-[(3′-methoxymethoxy)propylidene]-19-nor-1α,25-dihydroxyvitamin D3 [F-Wit] | significant transcriptional activity | – | – | relatively high intestinal calcium transport activity | more active than 2MD | significant ability to mobilize calcium from bone | less active in this regard than 2MD | –
